Experimental data from the METLIN SMRT retention time set (Domingo-Almenara et al. 2019).

Assay: gradient 5% acetonitrile 3 min, to 50% in 2 min, to 85% in 15 min, held 3 min, 100 µL/min
Conditions: column: Zorbax Extend-C18 2.1 x 50 mm; eluents: water / acetonitrile, 0.1% formic acid
In short: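 Mixtures of ~100 pure standards were chromatographed on a Zorbax Extend-C18 column (2.1 × 50 mm, 1.8 μm) at 100 μL/min using water and acetonitrile, each with 0.1% formic acid. Detection used a quadrupole time-of-flight mass spectrometer in positive and negative ionization mode, and data collection spanned 3 months. Retention time was obtained from adduct peaks picked computationally and each checked manually.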

| SMILES | RP-LC retention time [s] |
| --- | --- |
| Cc1ccn2cc(-c3ccc(NS(=O)(=O)c4ccccc4F)cc3)nc2n1 | 636 |
| Cc1nc(OCC(=O)Nc2cc(Cl)ccc2Cl)c2ccccc2n1 | 836 |
| COc1ccc(CC(=O)N2CCCC(c3nnc(-c4ccccc4F)s3)C2)cc1OC (centres undefined) | 794 |
| CCOC(=O)c1nc(N(C)c2ccccc2F)c2ccccc2n1 | 931 |
| CCOc1ccc(NC(=O)NC2CCN(c3cc(C)cc(C)c3)C2=O)cc1 (centres undefined) | 886 |
| C=C[C@H]1CN2CC[C@H]1C[C@H]2[C@H](O)c1ccnc2ccc(OC)cc12 | 592 |
| COc1cccc(N2CCN(C(=O)Cn3ccc4c(SCc5ccc(F)cc5)nccc43)CC2)c1 | 795 |
| COCCN(Cc1ccc(C(C)C)cc1)Cc1cc(=O)n2cccc(C)c2n1 | 728 |
| CCOCc1nc(C2CCCN2S(=O)(=O)c2c(C)nn(C)c2C)no1 (centres undefined) | 691 |
| Cc1sc(-c2cc(C(F)(F)F)[nH]n2)cc1S(=O)(=O)NC1CCCC1 | 1000 |
| O=S(=O)(NCc1ccccn1)c1ccc(F)c(Cl)c1 | 643 |
| CCN1C(=O)COc2cc(-c3noc(C(=O)N4CCN(C)CC4)n3)ccc21 | 616 |
| COc1nn(C)cc1C(=O)Nc1nc(-c2nc3ccccc3s2)cs1 | 837 |
| CCOc1cc(C(=O)NC2CCN(c3cc(-c4ccc(OC)cc4)[nH]n3)C2)cc(OCC)c1OCC (centres undefined) | 806 |
| CNC(=O)CCc1nc2ccccc2n(CC(=O)NCc2ccccc2Br)c1=O | 700 |
| CC(C)CC(=O)Nc1ccc(OCc2cc(C(=O)NC(C)C)no2)cc1 | 816 |
| CCCn1cc(CCNS(=O)(=O)c2cccc(Cl)c2C)c2cccnc21 | 914 |
| COCCCNC(=O)CN1c2ccccc2NC2=C(C(=O)CC(C)(C)C2)C1c1ccc(C)cc1 (centres undefined) | 822 |
| CCOC(=O)Cn1c(=O)c2cnc(-c3ccc(Cl)cc3)nc2n(C)c1=O | 1130 |
| Cc1noc(C)c1Cc1ccc(C(=O)NCC23CCC=C2N(C)C(=O)CC3)o1 (centres undefined) | 727 |

| SMILES | RP-LC retention time [s] |
| --- | --- |
| CCOCC(=O)Nc1ccc(-c2cn3c(C(=O)N(C)C)csc3n2)cc1 | 647 |
| CCOc1cc(Cl)c(S(=O)(=O)Nc2cccnc2)cc1Cl | 717 |
| COCCCNC(=O)C1CCCN(c2nccc(C)n2)C1 (centres undefined) | 592 |
| N#Cc1cccc(S(=O)(=O)N2CCc3nc(-c4ccc(F)cc4)ncc3C2)c1 | 1030 |
| CC(C)(C)c1ccc(C(=O)Nc2nnc(C3CC(=O)N(c4ccc(F)cc4)C3)o2)cc1 (centres undefined) | 872 |
| Cc1ccc(-c2nc(-c3ccc4c(c3)ncn4CCC(=O)N3CCCC3)no2)s1 | 753 |
| O=C(Nc1ccc(S(=O)(=O)Nc2nccs2)cc1)c1ccc([N+](=O)[O-])o1 | 641 |
| CCN(CC)CC(C)(C)C(=O)/C=C/c1ccc(C)cc1 | 684 |
| CCn1nccc1-c1cccc(-c2noc(-c3ccc(OC)cc3C)n2)c1 | 1300 |
| CC(=O)N1CCN(C2=NC(=O)/C(=C\c3ccc(O)c([N+](=O)[O-])c3)S2)CC1 | 589 |
| Cc1ccc(N2CC(c3nc(-c4ccc5oc(C)nc5c4)no3)CC2=O)cc1 (centres undefined) | 903 |
| COc1ccc(Cl)cc1NC(=O)c1nc2nc(C)cc(C(F)F)n2n1 | 959 |
| COc1ccc(NC(=O)N(C)CCc2noc(COc3cc(C)cc(C)c3)n2)cc1 | 907 |
| Cc1ccc(NC(=O)Cn2cnc3nc(N4CCCC(C(=O)NC(C)C)C4)sc3c2=O)c(C)c1 (centres undefined) | 710 |
| Cn1nc(-c2nnc(-c3ccc(F)cc3)o2)c2c1CCN(S(=O)(=O)c1cccc3nsnc13)C2 | 910 |
| CC(=O)N1c2ccccc2CC1c1nc(C(C)C)no1 (centres undefined) | 841 |
| COCCN1C(=O)c2cc(-c3ccccc3)nn2CC1(C)C(=O)NCc1ccccc1 (centres undefined) | 842 |
| Cc1nnc(SCC(=O)N2CCOCC2)s1 | 560 |
| Cc1cc(-c2nc(-c3ccc(F)cc3)no2)c(C)n1CC(=O)N1CCCC(C)C1 (centres undefined) | 1180 |
| COc1ccc(CN2C=C(C(=O)OCc3noc(-c4ccccc4C)n3)C(C)=NS2(=O)=O)cc1 | 861 |

| SMILES | RP-LC retention time [s] |
| --- | --- |
| Brc1ccccc1Cc1nc(-c2ccn3cnnc3c2)no1 | 806 |
| Cc1cc(NC(=O)c2sc(-c3cn(C)c4ncccc34)nc2C)ccc1F | 979 |
| COc1cc(OC)cc(-n2nnc(-c3nsc(Nc4ccccc4OC)n3)c2C)c1 | 1050 |
| CCCN(C)C(=O)c1cc2c(s1)N(CC1CC1)CCCC2 | 1160 |
| COC(=O)c1cccc(N2C=C(C#N)S(=O)(=O)c3ccc(C)cc32)c1 | 881 |
| COc1ccc(NC(=O)Cn2nc3cc(C)nc(Nc4cc(C)cc(C)c4)n3c2=O)cc1 | 869 |
| O=C(CSc1nccc(-c2ccc3c(c2)OCO3)n1)c1ccc2c(c1)OCO2 | 888 |
| CN(C)c1ccc(CNC(=O)Cc2cn(C)c3ncccc23)cc1 | 704 |
| Cc1cc(C)n(-c2cc(N3CCCC(C(=O)Nc4cc(C)on4)C3)ncn2)n1 (centres undefined) | 762 |
| COc1ccccc1C1CC(=O)Nc2c(S(=O)(=O)c3ccccc3)csc21 (centres undefined) | 946 |
| CCc1nn2c(CNC(=O)c3cccc(Br)c3)c(-c3ccccc3)nc2s1 | 1030 |
| Cc1ccc(NC(=O)Nc2ccc3nc(N4CCN(C)CC4)cc(C)c3c2)c([N+](=O)[O-])c1 | 624 |
| CC1=C(c2ccc(C)cc2)S(=O)(=O)N=C1N1CCCN(C(=O)CC(C)C)CC1 | 855 |
| Cc1ccc(N2CCN(CC(O)COc3ccc([N+](=O)[O-])cc3)CC2)cc1 (centres undefined) | 601 |
| COc1ccc(NC(=O)c2[nH]c3cc(C)sc3c2CN(C)C)cc1F | 680 |
| CCOc1ccc(-c2cc(=O)n(CCCC(=O)Nc3ccc4sc(C)nc4c3)cn2)cc1 | 721 |
| COc1cccc(N2CCN(c3ccc(-c4nc(-c5ccccc5)no4)cn3)CC2)c1 | 1410 |
| COc1ccc(NC(=O)CN2CCc3[nH]c4c(C)c(C)ccc4c(=O)c3C2)cc1Cl | 650 |
| Cc1c(Cl)cccc1N1CC(c2nc3ccccc3[nH]2)CC1=O (centres undefined) | 577 |
| CCCOc1cc(S(=O)(=O)NCCCn2ccnc2)ccc1Cl | 596 |

The next lines start with the values.

| RP-LC retention time [s] | SMILES |
| --- | --- |
| 892 | CCN(Cc1ccccc1)C(=O)CN1C(=O)C2CCCCN2c2ccc(C(=O)N3CCCC3)cc21 (centres undefined) |
| 803 | COc1cccc(NC(=O)Cn2nc3cc(C)nc(-c4ccccc4)n3c2=O)c1 |
| 853 | Cc1[nH]c(C(=O)N2CCCC(C(=O)N3CCN(c4ccccc4)CC3)C2)c(C)c1C (centres undefined) |
| 714 | Cc1cc2c(N3CCCC(C(=O)NCc4ccccc4Br)C3)nccc2s1 (centres undefined) |
| 1180 | O=C(CCC1CCCC1)Nc1nc(-c2ccccc2)cs1 |
| 1020 | CC1CCN(S(=O)(=O)c2ccc3nn(CCc4ccccc4)c(=O)n3c2)CC1 |
| 942 | CCOC(=O)c1ccc(NC(=O)N2CCCC2c2cc(C(C)C)no2)cc1 (centres undefined) |
| 747 | Nc1cc(C2CCN(S(=O)(=O)Cc3ccc(F)cc3)CC2)no1 |
| 753 | COc1ccc(NC(=O)C2CCCN(c3ncnc4c3nc3n4CCCCC3)C2)cc1 (centres undefined) |
| 973 | O=C(c1cn(-c2cc(N3CCCCC3)ncn2)cn1)N1CCc2ccccc2C1 |
| 627 | CC1CCCCN1CCCNC(=O)CCCn1c(=O)c2cccn2c2ccccc21 (centres undefined) |
| 674 | CCNC(=O)C1CCN(c2cnn(Cc3ccccc3)c(=O)c2)CC1 |
| 697 | O=C(Nc1ccccc1)N1CCC(N(C(=O)C2CC2)C2CCOCC2)CC1 |
| 645 | Cc1cnc(C(=O)N2CCC(c3noc(-c4ccncc4)n3)C2)cn1 (centres undefined) |
| 751 | Cn1nnnc1C1CCCN(S(=O)(=O)Cc2ccccc2)C1 (centres undefined) |
| 634 | O=C(Nc1ccc2c(c1)OCCO2)N1CCCC(c2nn[nH]n2)C1 (centres undefined) |
| 625 | O=C(CCc1nnn2c1CN(C(=O)c1nccc3ccccc13)CC2)N1CCCC1 |
| 804 | CN(CC1CCOC1)S(=O)(=O)Cc1cccc(Cl)c1 (centres undefined) |
| 616 | Cc1ccc(-c2c(C(=O)NCCN3CCOCC3)nc3ccccn23)cc1 |
| 840 | COc1ccc(C)cc1NC(=O)Cn1nc(N2CCCC2)c2ccccc2c1=O |
| 1020 | O=C(Nc1cnc(N2CCCCC2)nc1)c1ccc(Cl)s1 |
| 841 | CC(C(=O)NCCc1c[nH]c2ccccc12)C1CCN(S(=O)(=O)c2cccs2)CC1 (centres undefined) |
| 900 | CCOc1ccc2c(n1)CCN(C(=O)Nc1ccc(C)c(C)c1)C2 |
| 575 | CC(C)(c1ccccc1)c1cc(CN2CCOCC2)c(O)c(CN2CCOCC2)c1 |
| 743 | O=C(NCc1[nH]nc2ccccc12)C1CC(=O)N(c2cccc(Cl)c2)C1 (centres undefined) |
| 719 | O=C(Cn1nc2n(c1=O)CCCCC2)NCc1ccccc1Cl |
| 694 | CCc1ccc(NC(=O)Cn2cnc3nc(N4CCCC(C(=O)NC)C4)sc3c2=O)cc1 (centres undefined) |
| 920 | COc1ccc(NC(=O)N2CC=C(c3cn(C(C)C)c4ncccc34)CC2)cc1F |
| 670 | COc1ccc(NC(=O)C2CCN(c3cncnc3N3CCCCC3)CC2)cc1 |
